For orientation: LD50 means the dose expected to kill half of the subjects tested. Low readings indicate greater toxicity, high ones lower toxicity. The inhibition is how much of the control response was suppressed.

For four compounds, LD50 and inhibition results are on record in patent publication US4075340A, “Thieno [2,3-C] pyridine derivatives and therapeutic composition containing same” (Parcor, priority 1975, dated 1978).

Where a name gives a salt, the structure may show the parent alone.

The nature of data set [1]: acute toxicity, LD50 /24 hrs/kg body weight, intravenous route, method according to Miller and Tainter. Conditions: in vivo.
The subject of data set [2] is blood platelet aggregation. The data set is described as follows: Inhibiting activity on blood platelet aggregation (adenosine diphosphate induced, turbidimetric assay). Type of data set: in vivo. The note with it: rat plasma, animals administered 100 mg/kg, read-out: percent inhibition on blood platelet aggregation. How it is done: Rat plasma, prepared to contain 600,000+20,000 blood platelets per mm3 is normally cloudy. Addition of adenosine diphosphate induces blood platelet aggregation and, thus an increase of the light transmission. When the same test is effected with a plasma prepared from the blood of an animal which has been administered 100 mg/kg of a derivative having an inhibiting effect on blood platelet aggregation, there is no aggregation of the blood platelets and the serum remains cloudy. The turbidimetric assay effected with a spectrophotometer provides a measure of the inhibiting activities of the test derivatives on blood platelet aggregation.

`CC(O)CN1CCc2ccsc2C1.Cl` (centres unmarked) [Derivative No. 9, 6-(2-hydroxy-propyl)-4,5,6,7-tetrahydro-thieno[2,3-c]pyridine, hydrochloride] gave a 50% lethal dose (LD50) at 24 h in data set [1] of 120 mg/kg. Moreover, in data set [2], the inhibition at 100 mg/kg was found to be 89%.

Take `OC(CN1CCc2ccsc2C1)c1ccc(F)cc1` (centres unmarked) [Derivative No. 29, 6-(2-hydroxy-2-p.fluorophenyl-ethyl)-4,5,6,7-tetrahydro-thieno[2,3-c]pyridine]: the 50% lethal dose (LD50) at 24 h in data set [1] was 60 mg/kg. Moreover, the inhibition at 100 mg/kg in data set [2] is 89%.

As to `Cc1ccc(CN2CCc3ccsc3C2)cc1` [Derivative No. 24, 6-p.methylbenzyl-4,5,6,7-tetrahydro-thieno[2,3-c]pyridine, hydrochloride], the LD50 at 24 h in data set [1] is 45 mg/kg. For the same compound, the inhibition at 100 mg/kg in data set [2] came out at 78%.

With `Clc1ccc(CN2CCc3ccsc3C2)cc1` [Derivative No. 21, 6-p.chlorobenzyl-4,5,6,7-tetrahydro-thieno[2,3-c]pyridine, hydrochloride], the median lethal dose (LD50) at 24 h in data set [1] came to 55 mg/kg. The inhibition at 100 mg/kg in data set [2] was 91%.
